# Measurements reported in US4613355A, “Antibiotic having herbicidal activity” (Satoshi Omura, priority 1983, dated 1986).
# How the values were obtained:
# Assay in all cases: Foliage treatment (Example 8)
# Type in all cases: in vivo
# Design in all cases: key: 0 indicates no effect; 5 indicates complete kill
# Pueraria lobata = settings: Plant No. 16 Pueraria lobata
# Protocol: (§1) Aqueous solutions of Phosalacine (Na salt) at different concentrations were applied at a rate of 1500 liters per hectare to naturally occurring plants or plants which were cultured on plates as shown in the following Table at certain stages of growth. […] One month after the foliage treatment, the inhibition of regrowth of the plants was visually investigated.
# Oryzae sativa = settings: Plant No. 25 Oryzae sativa
# Protocol: as §1
# Imperata cyrindrica = settings: Plant No. 15 Imperata cyrindrica
# Protocol: as §1
# Cayratia japonica = settings: Plant No. 13 Cayratia japonica
# Protocol: as §1
# Daucus carota = settings: Plant No. 29 Daucus carota
# Protocol: as §1
# Helianthus tuberosus = settings: Plant No. 12 Helianthus tuberosus
# Protocol: as §1
# Digitaria adscendens = settings: Plant No. 10 Digitaria adscendens
# Protocol: as §1
# Triticum aestivum = settings: Plant No. 26 Triticum aestivum
# Protocol: as §1
# Solanum melongena = settings: Plant No. 31 Solanum melongena
# Protocol: as §1
# Pleioblastus chino = settings: Plant No. 11 Pleioblastus chino
# Protocol: as §1
# Euphonia supina = settings: Plant No. 36 Euphonia supina
# Protocol: (§2) Aqueous solutions of Phosalacine (Na salt) at different concentrations were applied at a rate of 1500 liters per hectare to naturally occurring plants or plants which were cultured on plates as shown in the following Table at certain stages of growth. […]
# Artemisia princeps = settings: Plant No. 1 Artemisia princeps
# Protocol: as §2
# Allium fistulosum = settings: Plant No. 27 Allium fistulosum
# Protocol: as §2
# Arctium lappa = settings: Plant No. 30 Arctium lappa, 14 days
# Protocol: as §2
# Oxalis corniculata = settings: Plant No. 35 Oxalis corniculata
# Protocol: as §2
# Cucumis sativus = settings: Plant No. 33 Cucumis sativus
# Protocol: as §2
# Miscanthus sinensis = settings: Plant No. 5 Miscanthus sinensis
# Protocol: as §2
# Brassica oleracea = settings: Plant No. 28 Brassica oleracea
# Protocol: as §2
# Glycine max = settings: Plant No. 34 Glycine max
# Protocol: as §2
# [1] = tested on: Eleucine indica var. carocana; settings: Plant No. 24 Eleucine indica var. carocana
# Protocol: as §2
smiles,measurement,setting,value
"C[C@H](NC(=O)[C@H](C)NC(=O)[C@@H](N)CCP(C)(=O)[O-])C(=O)O.[Na+] [SF, reference compound]","damage to the plants, scale 0 to 5","Pueraria lobata; 0.1%, 7 days",3
same,"damage to the plants, scale 0 to 5","Pueraria lobata; 0.1%, 14 days",4
same,"damage to the plants, scale 0 to 5","Pueraria lobata; 0.2%, 7 days",4
same,"damage to the plants, scale 0 to 5","Pueraria lobata; 0.2%, 14 days",5
same,"damage to the plants, scale 0 to 5","Oryzae sativa; 0.1%, 7 days",3
same,"damage to the plants, scale 0 to 5","Oryzae sativa; 0.1%, 14 days",4
same,"damage to the plants, scale 0 to 5","Oryzae sativa; 0.2%, 7 days",4
same,"damage to the plants, scale 0 to 5","Oryzae sativa; 0.2%, 14 days",5
same,"damage to the plants, scale 0 to 5","Imperata cyrindrica; 0.1%, 7 days",3
same,"damage to the plants, scale 0 to 5","Imperata cyrindrica; 0.1%, 14 days",4
same,"damage to the plants, scale 0 to 5","Imperata cyrindrica; 0.2%, 7 days",4
same,"damage to the plants, scale 0 to 5","Imperata cyrindrica; 0.2%, 14 days",5
same,"damage to the plants, scale 0 to 5","Cayratia japonica; 0.1%, 7 days",3
same,"damage to the plants, scale 0 to 5","Cayratia japonica; 0.1%, 14 days",4
same,"damage to the plants, scale 0 to 5","Cayratia japonica; 0.2%, 7 days",4
same,"damage to the plants, scale 0 to 5","Cayratia japonica; 0.2%, 14 days",5
same,"damage to the plants, scale 0 to 5","Daucus carota; 0.1%, 7 days",2
same,"damage to the plants, scale 0 to 5","Daucus carota; 0.1%, 14 days",4
same,"damage to the plants, scale 0 to 5","Daucus carota; 0.2%, 7 days",3
same,"damage to the plants, scale 0 to 5","Daucus carota; 0.2%, 14 days",5
same,"damage to the plants, scale 0 to 5","Helianthus tuberosus; 0.1%, 7 days",3
same,"damage to the plants, scale 0 to 5","Helianthus tuberosus; 0.1%, 14 days",4
same,"damage to the plants, scale 0 to 5","Helianthus tuberosus; 0.2%, 7 days",4
same,"damage to the plants, scale 0 to 5","Helianthus tuberosus; 0.2%, 14 days",5
same,"damage to the plants, scale 0 to 5","Digitaria adscendens; 0.1%, 7 days",3
same,"damage to the plants, scale 0 to 5","Digitaria adscendens; 0.1%, 14 days",4
same,"damage to the plants, scale 0 to 5","Digitaria adscendens; 0.2%, 7 days",5
same,"damage to the plants, scale 0 to 5","Digitaria adscendens; 0.2%, 14 days",5
same,"damage to the plants, scale 0 to 5","Triticum aestivum; 0.1%, 7 days",3
same,"damage to the plants, scale 0 to 5","Triticum aestivum; 0.1%, 14 days",4
same,"damage to the plants, scale 0 to 5","Triticum aestivum; 0.2%, 7 days",4
same,"damage to the plants, scale 0 to 5","Triticum aestivum; 0.2%, 14 days",5
same,"damage to the plants, scale 0 to 5","Solanum melongena; 0.1%, 7 days",3
same,"damage to the plants, scale 0 to 5","Solanum melongena; 0.1%, 14 days",4
same,"damage to the plants, scale 0 to 5","Solanum melongena; 0.2%, 7 days",5
same,"damage to the plants, scale 0 to 5","Solanum melongena; 0.2%, 14 days",5
same,"damage to the plants, scale 0 to 5","Pleioblastus chino; 0.1%, 7 days",3
same,"damage to the plants, scale 0 to 5","Pleioblastus chino; 0.1%, 14 days",4
same,"damage to the plants, scale 0 to 5","Pleioblastus chino; 0.2%, 7 days",4
same,"damage to the plants, scale 0 to 5","Pleioblastus chino; 0.2%, 14 days",5
same,"damage to the plants, scale 0 to 5","Euphonia supina; 0.1%, 7 days",3
same,"damage to the plants, scale 0 to 5","Euphonia supina; 0.1%, 14 days",4
same,"damage to the plants, scale 0 to 5","Euphonia supina; 0.2%, 7 days",4
same,"damage to the plants, scale 0 to 5","Euphonia supina; 0.2%, 14 days",5
same,"damage to the plants, scale 0 to 5","Artemisia princeps; 0.1%, 7 days",3
same,"damage to the plants, scale 0 to 5","Artemisia princeps; 0.1%, 14 days",4
same,"damage to the plants, scale 0 to 5","Artemisia princeps; 0.2%, 7 days",4
same,"damage to the plants, scale 0 to 5","Artemisia princeps; 0.2%, 14 days",5
same,"damage to the plants, scale 0 to 5","Allium fistulosum; 0.1%, 7 days",3
same,"damage to the plants, scale 0 to 5","Allium fistulosum; 0.1%, 14 days",4
same,"damage to the plants, scale 0 to 5","Allium fistulosum; 0.2%, 7 days",5
same,"damage to the plants, scale 0 to 5","Allium fistulosum; 0.2%, 14 days",5
same,"damage to the plants, scale 0 to 5",Arctium lappa; 0.1%,4
same,"damage to the plants, scale 0 to 5",Arctium lappa; 0.2%,5
same,"damage to the plants, scale 0 to 5","Oxalis corniculata; 0.1%, 7 days",3
same,"damage to the plants, scale 0 to 5","Oxalis corniculata; 0.1%, 14 days",4
same,"damage to the plants, scale 0 to 5","Oxalis corniculata; 0.2%, 7 days",4
same,"damage to the plants, scale 0 to 5","Oxalis corniculata; 0.2%, 14 days",5
same,"damage to the plants, scale 0 to 5","Cucumis sativus; 0.1%, 7 days",3
same,"damage to the plants, scale 0 to 5","Cucumis sativus; 0.1%, 14 days",4
same,"damage to the plants, scale 0 to 5","Cucumis sativus; 0.2%, 7 days",4
same,"damage to the plants, scale 0 to 5","Cucumis sativus; 0.2%, 14 days",5
same,"damage to the plants, scale 0 to 5","Miscanthus sinensis; 0.1%, 7 days",3
same,"damage to the plants, scale 0 to 5","Miscanthus sinensis; 0.1%, 14 days",4
same,"damage to the plants, scale 0 to 5","Miscanthus sinensis; 0.2%, 7 days",4
same,"damage to the plants, scale 0 to 5","Miscanthus sinensis; 0.2%, 14 days",5
same,"damage to the plants, scale 0 to 5","Brassica oleracea; 0.1%, 7 days",3
same,"damage to the plants, scale 0 to 5","Brassica oleracea; 0.1%, 14 days",4
same,"damage to the plants, scale 0 to 5","Brassica oleracea; 0.2%, 7 days",4
same,"damage to the plants, scale 0 to 5","Brassica oleracea; 0.2%, 14 days",5
same,"damage to the plants, scale 0 to 5","Glycine max; 0.1%, 7 days",3
same,"damage to the plants, scale 0 to 5","Glycine max; 0.1%, 14 days",4
same,"damage to the plants, scale 0 to 5","Glycine max; 0.2%, 7 days",4
same,"damage to the plants, scale 0 to 5","Glycine max; 0.2%, 14 days",5
same,"damage to the plants, scale 0 to 5","[1]; 0.1%, 7 days",3
same,"damage to the plants, scale 0 to 5","[1]; 0.1%, 14 days",4
same,"damage to the plants, scale 0 to 5","[1]; 0.2%, 7 days",4
same,"damage to the plants, scale 0 to 5","[1]; 0.2%, 14 days",5
